Values of other authors as cited in US9533037B2, “Methods for designing and preparing vaccines comprising directed sequence polymer compositions via the directed expansion of epitopes” (Declion Holdings LLC, priority 2007, dated 2017).

Tested on: MBP83-99
Conditions: limited human trials

AKPVVHLFANIVTPRTP
immune reactivity against the peptide: long term immune reactivity
clinical efficacy by evaluation using MRI (multiple sclerosis): clinically ineffective
